Results: patent US20090105278A1, “Selective inhibitors of human corticosteroid syntheses” (Universitat Des Saarlandes, priority 2004, published 2009)
Read-outs that look alike come from different tables or passages of the source.

Columns and labels:
human CYP11B2 = target: T1, human CYP11B2 (Homo sapiens, UniProt P19099); test: Screening test in transgenic fission yeast (S. pombe PE1) expressing human CYP11B2; assay type: cell-based; design: expressed in transfected cells; conditions: S. pombe cells which express human CYP11B2, deoxycorticosterone substrate 100 nM, inhibitor 500 nM; for inhibition at 0.5 µM: read-out: % Inhibition human hCYP11B2
T1 sequence (P19099 25-503): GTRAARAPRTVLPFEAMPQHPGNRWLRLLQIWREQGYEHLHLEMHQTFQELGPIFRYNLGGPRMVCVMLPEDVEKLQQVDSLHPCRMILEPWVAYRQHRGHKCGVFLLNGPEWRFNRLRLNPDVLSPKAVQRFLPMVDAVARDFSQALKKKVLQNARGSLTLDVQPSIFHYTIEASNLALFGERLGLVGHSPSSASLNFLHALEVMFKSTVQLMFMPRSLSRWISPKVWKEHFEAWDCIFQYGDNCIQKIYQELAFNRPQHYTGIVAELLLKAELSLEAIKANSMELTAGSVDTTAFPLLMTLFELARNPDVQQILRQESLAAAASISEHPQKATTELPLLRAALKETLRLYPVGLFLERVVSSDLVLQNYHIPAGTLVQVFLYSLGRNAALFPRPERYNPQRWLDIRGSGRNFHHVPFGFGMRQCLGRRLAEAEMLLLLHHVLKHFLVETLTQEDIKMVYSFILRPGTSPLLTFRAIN
Procedure: 492.5 μl of this cell suspension was admixed with 5 μl of inhibitor solution (50 μM of the compound to be tested in ethanol or DMSO) and incubated at 32° C. for 15 min. Controls were admixed with 5 μl of ethanol. […] The test was quenched by extracting the sample with 500 μl of EtOAc. After centrifugation (10,000 g, 2 min), the EtOAc phase was removed and evaporated to dryness. […] The reaction of the substrate to form corticosterone was analyzed by HPTLC (see below).
The quantification of the spots for the substrate deoxycorticosterone and the products corticosterone (and, if detectable, 18-hydroxycorticosterone and aldosterone) was effected with the related evaluation program AIDA. […] The calculation of the conversion rate was effected according to equation 1.
The plate was developed twice with the mobile solvent chloroform:methanol:water (300:20:1). Unlabeled 11-deoxycorticosterone and corticosterone were applied as a reference for the CYP11B1 reaction. For the CYP11B2 reaction, 11-deoxycorticosterone, corticosterone, 18-hydroxycorticosterone and aldosterone were used as references. The detection of the unlabeled references was effected at 260 nm. Subsequently, imaging plates (BAS MS2340, for ^14C samples, Raytest, Straubenhardt, Germany) were exposed to the HPTLC plates for 48 h. The imaging plates were scanned with the phosphoimager system Fuji FLA 3000 (Raytest, Straubenhardt, Germany), and the steroids were quantified.

bovine adrenal CYP11B = target: T2, bovine adrenal CYP11B (Bos taurus, UniProt P15150); test: Percent inhibition of bovine CYP11B (adrenal mitochondria); conditions: corticosterone substrate 200 μM, inhibitor 1 μM; for % Inhibition bovine bCYP11B: bovine adrenal mitochondria, 1 mg/ml protein; for inhibition at 1 µM: read-out: % Inhibition bovine bCYP11B, bovine adrenal mitochondria, 1 mg/ml protein
T2 sequence (P15150 25-503): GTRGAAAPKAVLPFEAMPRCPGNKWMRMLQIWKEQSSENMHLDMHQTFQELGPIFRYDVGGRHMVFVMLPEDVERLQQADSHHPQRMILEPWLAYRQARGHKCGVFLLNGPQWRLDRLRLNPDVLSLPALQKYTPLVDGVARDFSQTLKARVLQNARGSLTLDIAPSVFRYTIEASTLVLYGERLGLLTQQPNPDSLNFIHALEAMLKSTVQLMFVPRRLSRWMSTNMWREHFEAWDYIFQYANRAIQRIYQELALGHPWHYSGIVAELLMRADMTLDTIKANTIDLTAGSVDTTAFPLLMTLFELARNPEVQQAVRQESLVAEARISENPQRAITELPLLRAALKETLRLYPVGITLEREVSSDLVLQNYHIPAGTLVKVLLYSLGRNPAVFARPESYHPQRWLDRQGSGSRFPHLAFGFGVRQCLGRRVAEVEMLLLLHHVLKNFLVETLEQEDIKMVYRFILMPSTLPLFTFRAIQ
Procedure: Bovine adrenal glands obtained freshly after slaughtering were stored in ice cold Tris-sucrose buffer (0.25 M sucrose, 0.05 M Tris; pH 7.4) until processed. After removing the appending adipose tissue, the adrenal medulla was carefully separated from the adrenal cortex using scissors. The pieces of adrenal cortex were coarsely comminuted with scissors, washed with Tris-sucrose buffer, weighed and finely comminuted in the above buffer (2 ml per g of tissue) with a hand mixer. Thereafter, the tissue was homogenized with an Ultra-Turrax mixer. For separating coarse cell debris and the nuclei, the homogenizate was centrifuged twice for 15 min at 900 g and 4° C. The supernatant was subsequently centrifuged for 35 min at 11,000 g for recovering the mitochondrial fraction. For purifying the mitochondrial fraction, the precipitate was resuspended in Tri-sucrose buffer and again centrifuged at 11,000 g for 35 min. This washing step was performed two times in total. After the last centrifugation, the pellet was resuspended in Tris-sucrose buffer containing 0.001 M EDTA and frozen at −70° C.
The substrate corticosterone was dissolved in methanol and diluted with Tris buffer to a final concentration of 200 μM. The inhibitors were also dissolved in methanol and diluted with buffer to a final concentration of 1 μM. […] Corticosterone (200 μM) was incubated with inhibitor (1 μM) and mitochondrial enzyme (0.5 mg/0.5 ml) with the addition of a regenerating system consisting of NADP^+ (1 mM), glucose-6-phosphate (7 mM) and glucose-6-Phosphate dehydrogenase (1 IU/0.5 ml). Up to 5 inhibitors per test could be incubated in duplicate. […] After preincubation for 5 minutes (30° C.; water bath), the reaction was started by adding mitochondrial suspension. […] The blind values were admixed with 250 μl of HCl before the enzyme was pipetted in. The steroids were separated off by shaking with 1 ml of ethyl acetate (10 min). After centrifugation (15,000 g, 10 min), 900 μl of the organic phase was shaken with 250 μl 1 N NaOH (10 min), and 800 μl of supernatant was again washed with 250 μl of buffer. […] 18-OH-corticosterone (retention time: 10 min) and corticosterone (retention time: 21 min) were separated. The height of the 18-OH-corticosterone peak was used for evaluation. The percent inhibition of the 18-hydroxylation of corticosterone by the inhibitors was based on the mediums of the control incubation, taking the blind values into account.

human CYP17 = target: T3, human CYP17 (Homo sapiens, UniProt P05093); test: Percent inhibition of CYP17 (membrane fraction of E. coli pJL17/OR); assay type: biochemical; conditions: for inhibition at 2.5 µM: read-out: % Inhibition human CYP17
T3 construct: made in house; host or cells: E. coli pJL17/OR (membrane fraction)
T3 sequence (P05093 1-508): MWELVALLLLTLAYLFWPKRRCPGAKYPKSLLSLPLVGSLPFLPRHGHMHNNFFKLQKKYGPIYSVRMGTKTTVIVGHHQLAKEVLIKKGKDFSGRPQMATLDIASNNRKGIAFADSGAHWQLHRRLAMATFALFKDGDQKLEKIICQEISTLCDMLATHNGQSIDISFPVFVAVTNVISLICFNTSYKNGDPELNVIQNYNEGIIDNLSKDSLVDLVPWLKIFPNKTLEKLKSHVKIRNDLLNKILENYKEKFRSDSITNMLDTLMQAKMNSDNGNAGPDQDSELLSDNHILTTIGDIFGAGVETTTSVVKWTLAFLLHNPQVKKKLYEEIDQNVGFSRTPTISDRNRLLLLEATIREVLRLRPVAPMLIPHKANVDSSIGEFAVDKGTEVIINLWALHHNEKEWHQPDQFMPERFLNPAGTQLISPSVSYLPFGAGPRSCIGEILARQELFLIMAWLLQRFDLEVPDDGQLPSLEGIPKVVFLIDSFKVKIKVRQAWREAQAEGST
Procedure: The recombinantly altered E. coli strain pJL17/OR, in which human CYP17 and rat NADPH-P450-reductase were coexpressed, was grown and stored according to the method of Ehmer et al. (Ehmer, P. B. et al., J. Steroid Biochem. Mol. Biol. 75: 57-63 (2000)). For isolating the membrane fraction, 5 ml of the bacterial cell suspension with an OD578 of 50 was washed with phosphate buffer (0.05 M; pH 7.4; 1 mM MgCl2; 0.1 mM EDTA and 0.1 mM DTT). The bacteria were removed by centrifugation and resuspended in 10 ml of ice cold TES buffer (0.1 M tris-acetate; pH 7.8; 0.5 mM EDTA; 0.5 M sucrose). Four milligrams of lysozyme in 10 ml of ice cold water was added to obtain a final concentration of 0.2 mg/ml. This was followed by incubation for 30 minutes under continued shaking on ice. The spheroblasts were obtained by a renewed centrifugation step at 12,000 g for 10 min and again resuspended in 3 ml of ice cold phosphate buffer (composition see above, additionally 0.5 mM PMSF).
After freezing and thawing, the cells were lysed on ice with an ultrasonic disintegrator. The whole cells and the cell debris were centrifuged off at 3000 g for 7 min. The supernatant was again centrifuged at 50,000 g for 20 min at 4° C. A membrane pellet sedimented and was resuspended in 2 ml of phosphate buffer (composition see above) with […] by means of an Ultra-Turrax mixer. […] Aliquots with an approximate protein concentration of 5 mg/ml were stored at −70° C. until use.
Control incubations were performed in parallel with 5 μl DMSO without urea. The reaction was started by adding 50 μl of a membrane suspension diluted 1 to 5 in phosphate buffer (0.8 to 1 mg of protein per ml). After thoroughly mixing the components, the mixture was incubated at 37° C. for 30 min.
The steroids were extracted with 1 ml of EtOAc. […] After the centrifugation, 800 μl of the organic phase was removed, placed into a new vessel and evaporated to dryness. The samples were dissolved in 50 μl of a water-methanol mixture (1:1) and analyzed by HPLC. The substrate conversion was calculated from the ratio of the areas of the product peaks (17α-hydroxyprogesterone and 16α-hydroxyprogesterone) to that of the substrate peak. The activity of the inhibitors was calculated from the reduced substrate conversion after the addition of inhibitors in accordance with the following formula: […]

ACTH-stimulated rats = conditions: Hausler et al. 1989; cited from earlier work
CYP11B1 in NCI-H295R = target: T4, CYP11B1 in NCI-H295R (Homo sapiens, UniProt P15538); test: cell-based; conditions: read-out: NCI-H295R CYP11B1 RSS % inhibition
T4 sequence (P15538 25-503): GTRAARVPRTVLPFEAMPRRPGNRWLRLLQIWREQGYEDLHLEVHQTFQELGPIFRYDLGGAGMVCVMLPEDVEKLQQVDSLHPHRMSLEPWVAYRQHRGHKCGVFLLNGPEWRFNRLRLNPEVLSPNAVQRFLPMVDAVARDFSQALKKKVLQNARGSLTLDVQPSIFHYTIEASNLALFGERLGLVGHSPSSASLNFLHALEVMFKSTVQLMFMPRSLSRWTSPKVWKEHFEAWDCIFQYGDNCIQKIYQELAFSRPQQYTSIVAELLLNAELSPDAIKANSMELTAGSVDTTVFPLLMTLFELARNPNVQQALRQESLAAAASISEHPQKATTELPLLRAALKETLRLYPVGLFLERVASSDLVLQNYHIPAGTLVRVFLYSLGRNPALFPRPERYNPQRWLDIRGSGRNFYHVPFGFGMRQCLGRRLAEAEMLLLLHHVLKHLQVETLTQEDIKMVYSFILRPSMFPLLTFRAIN
Procedure: For testing inhibitors, a preincubation for one hour was performed first, followed by starting the enzyme reactions by adding substrate (500 nM).
A) Seeding: The cell lines were grown and passaged until a confluent cell lawn had formed. By tryptic treatment, the cell material of at least two culture dishes was obtained, and the number of cells determined by means of a CASY TT cell counter (150 μl capillary). […] With the cell material of two confluently grown culture dishes, two 24-well plates could be coated. After 24 hours, the cells had grown on, and after another 24 hours' stimulation phase with a solution containing potassium ions (final concentration: 20 mM KCl), could be employed for the test.
Of this solution, 5 μl each was added to the samples.
Then, the 24-well plate was stored in a CO2 incubator at 37° C. and […]. The incubation time was 3 hours when deoxycorticosterone was used as the substrate, 24 Hours for corticosterone, and 48 hours for deoxycortisol.
Test stop: After elapse of the incubation times, the plates were briefly swung, and then the content of the wells was removed quantitatively if possible and inactivated by mixing with 1000 μl of dichloromethane in a 2 ml Eppendorf vessel. After 10 minutes of shaking, it was centrifuged for phase separation, and the […], organic phase was transferred into a 1.5 ml Eppendorf vessel. […]

[1] = E. coli which expresses human CYP17, 5 mg/ml protein, progesterone substrate 2.5 μM, inhibitor 2.5 μM

Row | Molecule | inhibition at 0.5 µM (human CYP11B2) [%] | % Inhibition bovine bCYP11B (bovine adrenal CYP11B; oxalate) [%] | inhibition at 1 µM (bovine adrenal CYP11B) [%] | inhibition at 2.5 µM (human CYP17; [1]) [%] | melting point [°C] | Aldosterone and corticosterone levels (ACTH-stimulated rats) | inhibition at 2.5 µM (human CYP17) [%] | inhibition at 2.5 µM (CYP11B1 in NCI-H295R) [%] | % Inhibition human hCYP11B2 (human CYP11B2) [%] | % Inhibition bovine bCYP11B (bovine adrenal CYP11B) [%] | % Inhibition human CYP17 (human CYP17; [1]) [%]
1 | N#Cc1ccc2c(c1)CC/C2=C/c1cnc[nH]1.O=C(O)C(=O)O [Compound 45b, (1Z)-1-(1H-Imidazole-5-ylmethylene)indane-5-carbonitrile oxalate] | 65 | 100 | ~90 | 4 | 207 | – | – | – | – | – | –
2 | N#Cc1ccc(C2CCCc3cncn32)cc1 (stereo not drawn) [Fadrozole, 4-(5,6,7,8-tetrahydroimidazo[1,5-a]pyridine-5-yl)benzonitrile, reference compound] | – | – | – | – | – | lowers the aldosterone and corticosterone levels | 7 | 92 | – | – | –
3 | N#Cc1ccc2c(c1)CC/C2=C\c1cnc[nH]1.O=C(O)C(=O)O [Compound 45a, (1E)-1-(1H-Imidazole-5-ylmethylene)indane-5-carbonitrile oxalate] | 49 | 81 | ~90 | 21 | 217 | – | – | – | – | – | –
4 | N#Cc1ccc2c(c1)CCC/C2=C/c1cnc[nH]1.O=C(O)C(=O)O [Compound 44b, (5Z)-5-(1H-Imidazole-5-ylmethylene)-5,6,7,8-tetrahydronaphthalene-2-carbonitrile oxalate] | 54 | 97 | ~90 | 4 | 206 | – | – | – | – | – | –
5 | 5-[(Z)-(5-Fluoro-2,3-dihydro-1H-indene-1-ylidene)methyl]-1H-imidazolium oxalate [Compound 47b] | – | – | – | – | – | – | – | – | 58 | 64 | 11
